{"source": "paper PMC3483018", "about": "(Journal of Medicinal Chemistry, 2012)", "key": {"pKa measurement": {"assay": "pKa measurement", "format": "physicochemical"}, "[1]": {"test_system": "SW620 human colon cancer cell", "details": "read-out: SW620 GI50; cited from earlier work"}, "hERG": {"molecular_target": "hERG (Homo sapiens, UniProt Q12809)", "sequence (Q12809 whole entry)": "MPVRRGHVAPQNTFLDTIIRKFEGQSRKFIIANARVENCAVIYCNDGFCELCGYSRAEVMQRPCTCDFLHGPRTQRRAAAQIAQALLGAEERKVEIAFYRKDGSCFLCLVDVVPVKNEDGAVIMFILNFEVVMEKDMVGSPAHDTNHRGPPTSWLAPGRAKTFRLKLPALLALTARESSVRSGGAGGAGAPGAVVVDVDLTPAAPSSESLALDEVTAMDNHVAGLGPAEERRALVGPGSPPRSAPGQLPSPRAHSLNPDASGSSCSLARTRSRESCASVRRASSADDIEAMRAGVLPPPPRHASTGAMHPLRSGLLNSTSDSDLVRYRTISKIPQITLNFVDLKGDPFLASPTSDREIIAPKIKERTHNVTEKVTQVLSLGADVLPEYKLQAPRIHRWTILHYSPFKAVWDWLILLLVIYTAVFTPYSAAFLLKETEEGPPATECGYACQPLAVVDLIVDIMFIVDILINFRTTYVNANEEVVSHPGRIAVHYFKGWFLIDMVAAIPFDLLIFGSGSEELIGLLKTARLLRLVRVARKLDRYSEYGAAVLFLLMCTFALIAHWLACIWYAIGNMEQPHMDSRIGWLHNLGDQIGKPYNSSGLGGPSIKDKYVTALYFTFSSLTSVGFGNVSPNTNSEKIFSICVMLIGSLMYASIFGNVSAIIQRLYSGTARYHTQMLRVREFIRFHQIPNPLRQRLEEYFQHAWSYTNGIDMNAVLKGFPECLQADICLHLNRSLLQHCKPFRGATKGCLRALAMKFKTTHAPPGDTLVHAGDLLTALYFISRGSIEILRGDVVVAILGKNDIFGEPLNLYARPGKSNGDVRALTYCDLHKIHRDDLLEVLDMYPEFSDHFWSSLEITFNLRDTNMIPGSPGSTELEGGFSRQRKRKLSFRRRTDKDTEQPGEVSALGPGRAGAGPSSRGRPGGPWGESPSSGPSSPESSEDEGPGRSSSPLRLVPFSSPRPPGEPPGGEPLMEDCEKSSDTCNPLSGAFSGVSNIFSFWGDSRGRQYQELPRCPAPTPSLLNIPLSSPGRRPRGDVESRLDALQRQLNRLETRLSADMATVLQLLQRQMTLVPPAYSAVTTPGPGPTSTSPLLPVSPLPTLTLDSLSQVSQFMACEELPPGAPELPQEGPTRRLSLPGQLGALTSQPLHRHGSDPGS", "assay": "in vitro"}, "[2]": {"format": "in vitro ADME", "details": "mouse liver microsomes, 10 μM"}, "[3]": {"format": "in vitro ADME", "details": "human liver microsomes, 10 μM"}, "Caco-2 assay": {"assay": "Caco-2 assay", "format": "in vitro ADME"}, "In vivo rat PK": {"assay": "In vivo rat PK", "details": "female, Sprague-Dawley, plasma, iv, 5 mg/kg"}, "[4]": {"test_system": "histone H-3 phosphorylation at S10", "assay": "PK/PD study, tumor biomarker", "format": "in vivo, mouse", "details": "50 and 100 mg/kg po b.i.d. 4 days, 2 h after the final dose"}, "[5]": {"test_system": "Stat5 phosphorylation at Y694", "assay": "PK/PD study, tumor biomarker", "format": "in vivo, mouse", "details": "50 and 100 mg/kg po b.i.d. 4 days, 2 h after the final dose"}, "[6]": {"test_system": "MV4–11 human FLT3-ITD positive AML tumor xenografts", "details": "for days on which individual mice were culled (tumor volume increased by over 500%): control culled day 18"}}, "note": "Read-outs that look alike come from different tables or passages of the source.", "data": [{"smiles": "COc1ccc(-c2nc3c(N4CCN(Cc5cc(C)on5)CC4)c(Br)cnc3[nH]2)cc1", "note": "[6-bromo-2-(4-methoxyphenyl)-7-[4-(5-methyl-isoxazol-3-ylmethyl)-piperazin-1-yl]-3H-imidazo[4,5-b]pyridine]", "values": [{"measurement": "pKa", "setting": "pKa measurement; acidic pKa of the imidazopyridine N3 proton", "value": 9.51}, {"measurement": "pKa", "setting": "pKa measurement; pKa of the piperazine nitrogen bearing the 5-methylisoxazol-3-yl substituent", "value": 5.39}]}, {"smiles": "Cc1cc(CN2CCN(c3c(Br)cnc4nc(-c5ccc(N6CCN(C)CC6)cc5)[nH]c34)CC2)no1", "note": "[Compound 6]", "values": [{"measurement": "GI50", "setting": "[1]", "value": 0.3, "unit": "µM"}]}, {"smiles": "Cc1cc(CN2CCN(c3c(Br)cnc4nc(-c5cncn5C)[nH]c34)CC2)no1", "note": "[Compound 21a, 3-((4-(6-Bromo-2-(1-methyl-1H-imidazol-5-yl)-3H-imidazo[4,5-b]pyridin-7-yl)piperazin-1-yl)methyl)-5-methylisoxazole]", "values": [{"measurement": "inhibition at 10 µM", "setting": "hERG", "value": 94, "unit": "%"}]}, {"smiles": "Cc1cc(CN2CCN(c3c(Cl)cnc4nc(-c5cnn(C)c5)[nH]c34)CC2)no1", "note": "[Compound 21i, 3-((4-(6-Chloro-2-(1-methyl-1H-pyrazol-4-yl)-3H-imidazo[4,5-b]pyridin-7-yl)piperazin-1-yl)methyl)-5-methylisoxazole]", "values": [{"measurement": "MLM: Percentage of parent compound metabolized after a 30 min incubation", "setting": "[2]", "value": 20, "unit": "%"}, {"measurement": "HLM: Percentage of parent compound metabolized after a 30 min incubation", "setting": "[3]", "value": 10, "unit": "%"}, {"measurement": "inhibition at 10 µM", "setting": "hERG", "value": 67, "unit": "%"}]}, {"smiles": "Cc1nn(C)cc1-c1nc2c(N3CCN(Cc4ccc(Cl)cc4)CC3)c(Cl)cnc2[nH]1", "note": "[Compound 27e, 6-Chloro-7-(4-(4-chlorobenzyl)piperazin-1-yl)-2-(1,3-dimethyl-1H-pyrazol-4-yl)-3H-imidazo[4,5-b]pyridine]", "values": [{"measurement": "Caco-2 efflux", "setting": "Caco-2 assay", "value": "no efflux"}, {"measurement": "Vd", "setting": "In vivo rat PK", "value": 0.369, "unit": "L"}, {"measurement": "inhibition of histone H-3 phosphorylation in tumor", "setting": "[4]", "value": "clear inhibition"}, {"measurement": "inhibition of Stat5 phosphorylation in tumor", "setting": "[5]", "value": "clear inhibition"}, {"measurement": "days on which individual mice were culled (tumor volume increased by over 500%)", "setting": "[6]; 50 mg/kg", "value": "days 28 and 31"}, {"measurement": "tumors when therapy discontinued", "setting": "[6]; 100 mg/kg po b.i.d., after 11 days", "value": "undetectable"}, {"measurement": "days on which individual mice were culled (tumor volume increased by over 500%)", "setting": "[6]; 100 mg/kg", "value": "days 46 and 56"}, {"measurement": "toxicity as defined by body weight loss and general condition", "setting": "[6]; 50 and 100 mg/kg po", "value": "no observed toxicity"}]}]}
